Reference: patent publication US8653263B2 (Janssen Pharmaceutica, priority 2009, dated 2014)

Each molecule was assayed against human orexin-2 receptor (Homo sapiens (Human), UniProt O43614) (assay: Human orexin 2 receptor radioligand binding ([3H]-EMPA competition)). Conditions: HEK293 cells stably expressing human orexin-2 receptor; [3H]-EMPA 5 nM final; apparent Ki=IC50/(1+C/Kd), Kd=2 nM; read-out: OR 2 Ki.
Sequence of human orexin-2 receptor (O43614 whole entry): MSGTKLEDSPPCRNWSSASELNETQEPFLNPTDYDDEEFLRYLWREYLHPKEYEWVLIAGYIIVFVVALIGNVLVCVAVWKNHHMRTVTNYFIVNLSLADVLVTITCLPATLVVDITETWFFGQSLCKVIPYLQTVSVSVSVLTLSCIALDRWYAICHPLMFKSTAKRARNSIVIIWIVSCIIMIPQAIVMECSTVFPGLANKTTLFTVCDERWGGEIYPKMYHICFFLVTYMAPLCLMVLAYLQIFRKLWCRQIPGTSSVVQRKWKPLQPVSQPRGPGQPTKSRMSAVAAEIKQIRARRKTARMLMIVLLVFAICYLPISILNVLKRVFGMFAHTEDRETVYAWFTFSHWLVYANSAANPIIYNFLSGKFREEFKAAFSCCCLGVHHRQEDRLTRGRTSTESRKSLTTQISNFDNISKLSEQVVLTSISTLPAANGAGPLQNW
With Cc1cc(N2CC3CN(C(=O)c4ccccc4-n4nccn4)CC3C2)nc(C(C)C)n1 (stereo not drawn) [Example 81, [5-(2-Isopropyl-6-methyl-pyrimidin-4-yl)-hexahydro-pyrrolo[3,4-c]pyrrol-2-yl]-(2-[1,2,3]triazol-2-yl-phenyl)-methanone] the Ki was 1220 nM.
In the case of Cc1cc(C)nc(N2CC3CN(C(=O)c4ccccc4Br)CC3C2)n1 (stereo not drawn) [Example 82, 2-[(2-Bromophenyl)carbonyl]-5-(4,6-dimethylpyrimidin-2-yl)octahydropyrrolo[3,4-c]pyrrole], the Ki is reported as 379 nM.
With COc1cc(OC)nc(N2CC3CN(C(=O)c4ccccc4-n4nccn4)CC3C2)n1 (stereo not drawn) [Example 84, 2-(4,6-Dimethoxypyrimidin-2-yl)-5-{[2-(2H-1,2,3-triazol-2-yl)phenyl]carbonyl}octahydropyrrolo[3,4-c]pyrrole] the Ki was 53 nM.
For O=C(c1ccccc1-c1nnc[nH]1)N1CC2CN(c3cnc4ccccc4n3)CC2C1 (stereo not drawn) [Example 85, 2-[5-{[2-(4H-1,2,4-Triazol-3-yl)phenyl]carbonyl}hexahydropyrrolo[3,4-c]pyrrol-2(1H)-yl]quinoxaline], the Ki was 98 nM.
O=C(c1ccccc1-c1nnc[nH]1)N1CC2CN(c3nc4ccccc4o3)CC2C1 (stereo not drawn) [Example 86, 2-[5-{[2-(4H-1,2,4-Triazol-3-yl)phenyl]carbonyl}hexahydropyrrolo[3,4-c]pyrrol-2(1H)-yl]-1,3-benzoxazole] showed a Ki of 256 nM.
Molecule Cc1ccnc(N2CC3CN(C(=O)c4ccccc4-c4nnc[nH]4)CC3C2)n1 (stereo not drawn) [Example 87, 2-(4-Methylpyrimidin-2-yl)-5-{[2-(4H-1,2,4-triazol-3-yl)phenyl]carbonyl}octahydro-pyrrolo[3,4-c]pyrrole] has a Ki of 509 nM.
CCOc1ccccc1C(=O)N1CC2CN(c3nc(C)cc(C)n3)CC2C1 (stereo not drawn) [Example 88, 2-(4,6-Dimethylpyrimidin-2-yl)-5-[(2-ethoxyphenyl)carbonyl]octahydropyrrolo[3,4-c]pyrrole] gave a Ki of 75 nM.
Cc1cc(C)nc(N2CC3CN(C(=O)c4ccc(F)cc4C(F)(F)F)CC3C2)n1 (stereo not drawn) [Example 89, 2-(4,6-Dimethylpyrimidin-2-yl)-5-{[4-fluoro-2-(trifluoromethyl)phenyl]carbonyl}octahydropyrrolo[3,4-c]pyrrole] gave a Ki of 452 nM.
Molecule Cc1cc(C)nc(N2CC3CN(C(=O)c4ccc(F)c5ccccc45)CC3C2)n1 (stereo not drawn) [Example 90, 2-(4,6-Dimethylpyrimidin-2-yl)-5-[(4-fluoronaphthalen-1-yl)carbonyl]octahydro-pyrrolo[3,4-c]pyrrole] has a Ki of 38 nM.
Molecule Cc1cc(C)nc(N2CC3CN(C(=O)c4ccccc4C(C)C)CC3C2)n1 (stereo not drawn) [Example 91, 2-(4,6-Dimethylpyrimidin-2-yl)-5-{[2-(1-methylethyl)phenyl]carbonyl}octahydro-pyrrolo[3,4-c]pyrrole] has a Ki of 541 nM.
For COc1cccc(C(=O)N2CC3CN(c4nc(C)cc(C)n4)CC3C2)c1C (stereo not drawn) [Example 92, 2-(4,6-Dimethylpyrimidin-2-yl)-5-[(3-methoxy-2-methylphenyl)carbonyl]octahydro-pyrrolo[3,4-c]pyrrole], the Ki was 766 nM.
Molecule Cc1cc(C)nc(N2CC3CN(C(=O)c4cccc5ccccc45)CC3C2)n1 (stereo not drawn) [Example 93, 2-(4,6-Dimethylpyrimidin-2-yl)-5-(naphthalen-1-ylcarbonyl)octahydropyrrolo[3,4-c]pyrrole] has a Ki of 64 nM.
Molecule O=C(c1ccccc1-c1nnc[nH]1)N1CC2CN(c3nc4ccccc4nc3C(F)(F)F)CC2C1 (stereo not drawn) [Example 94, 2-[5-{[2-(4H-1,2,4-Triazol-3-yl)phenyl]carbonyl}hexahydropyrrolo[3,4-c]pyrrol-2(1H)-yl]-3-(trifluoromethyl)quinoxaline] has a Ki of 551 nM.
Cc1nc2ccccc2nc1N1CC2CN(C(=O)c3ccccc3-c3nnc[nH]3)CC2C1 (stereo not drawn) [Example 95, 2-Methyl-3-[5-{[2-(4H-1,2,4-triazol-3-yl)phenyl]carbonyl}hexahydropyrrolo[3,4-c]pyrrol-2(1H)-yl]quinoxaline] gave a Ki of 215 nM.
Work on Cc1cc(N2CC3CN(C(=O)c4ccccc4-c4nnc[nH]4)CC3C2)nc(C(F)(F)F)n1 (stereo not drawn) [Example 96, 2-[6-Methyl-2-(trifluoromethyl)pyrimidin-4-yl]-5-{[2-(4H-1,2,4-triazol-3-yl)phenyl]carbonyl}octahydropyrrolo[3,4-c]pyrrole] yielded a Ki of 68 nM.
Cc1cc(N2CC3CN(C(=O)c4ccccc4-n4nccn4)CC3C2)nc(C(F)(F)F)n1 (stereo not drawn) [Example 97, 2-[6-Methyl-2-(trifluoromethyl)pyrimidin-4-yl]-5-{[2-(2H-1,2,3-triazol-2-yl)phenyl]carbonyl}octahydropyrrolo[3,4-c]pyrrole] was tested, and the Ki was 25 nM.
Work on Cc1cc(N2CC3CN(C(=O)c4c(F)cccc4-n4nccn4)CC3C2)nc(C(F)(F)F)n1 (stereo not drawn) [Example 98, 2-{[2-Fluoro-6-(2H-1,2,3-triazol-2-yl)phenyl]carbonyl}-5-[6-methyl-2-(trifluoromethyl)pyrimidin-4-yl]octahydropyrrolo[3,4-c]pyrrole] yielded a Ki of 28 nM.
Cc1cc(N2CC3CN(C(=O)c4ccc(F)cc4-n4nccn4)CC3C2)nc(C(F)(F)F)n1 (stereo not drawn) [Example 99, 2-{[4-Fluoro-2-(2H-1,2,3-triazol-2-yl)phenyl]carbonyl}-5-[6-methyl-2-(trifluoromethyl)pyrimidin-4-yl]octahydropyrrolo[3,4-c]pyrrole] showed a Ki of 15 nM.
In the case of Cc1ccc(-n2nccn2)c(C(=O)N2CC3CN(c4cncc(C)n4)CC3C2)c1 (stereo not drawn) [Example 100, 2-(6-Methylpyrazin-2-yl)-5-{[5-methyl-2-(2H-1,2,3-triazol-2 yl)phenyl]carbonyl}octahydropyrrolo[3,4-c]pyrrole], the Ki is reported as 238 nM.
With Cc1cnc(C)c(N2CC3CN(C(=O)c4c(F)cccc4-n4nccn4)CC3C2)n1 (stereo not drawn) [Example 101, 2-(3,6-Dimethylpyrazin-2-yl)-5-{[2-fluoro-6-(2H-1,2,3-triazol-2-yl)phenyl]carbonyl}octahydropyrrolo[3,4-c]pyrrole] the Ki was 48 nM.
In the case of Cc1ccc(-c2ncccn2)c(C(=O)N2CC3CN(c4nc(C)cc(C)n4)CC3C2)c1 (stereo not drawn) [Example 102, 2-(4,6-Dimethylpyrimidin-2-yl)-5-[(5-methyl-2-pyrimidin-2-ylphenyl)carbonyl]octahydropyrrolo[3,4-c]pyrrole], the Ki is reported as 17 nM.
Molecule Cc1ccc(-c2ncccn2)c(C(=O)N2CC3CN(c4nc(C)cnc4C)CC3C2)c1 (stereo not drawn) [Example 103, 2-(3,6-Dimethylpyrazin-2-yl)-5-[(5-methyl-2-pyrimidin-2-ylphenyl)carbonyl]octahydropyrrolo[3,4-c]pyrrole] has a Ki of 38 nM.
For Cc1cnc(C)c(N2CC3CN(C(=O)c4ccc(F)cc4-n4nccn4)CC3C2)n1 (stereo not drawn) [Example 104, 2-(3,6-Dimethylpyrazin-2-yl)-5-{[4-fluoro-2-(2H-1,2,3-triazol-2-yl)phenyl]carbonyl}octahydropyrrolo[3,4-c]pyrrole], the Ki was 42 nM.
In the case of CN(C)c1nc(N2CC3CN(C(=O)c4c(F)cccc4-n4nccn4)CC3C2)cc(C(F)(F)F)n1 (stereo not drawn) [Example 106, 4-[5-{[2-Fluoro-6-(2H-1,2,3-triazol-2-yl)phenyl]carbonyl}hexahydropyrrolo[3,4-c]pyrrol-2(1H)-yl]-N,N-dimethyl-6-(trifluoromethyl)pyrimidin-2-amine], the Ki is reported as 26 nM.
Work on Cc1ccc(-c2ncccn2)c(C(=O)N2CC3CN(c4cc(C(F)(F)F)nc(N(C)C)n4)CC3C2)c1 (stereo not drawn) [Example 108, N,N-Dimethyl-4-{5-[(5-methyl-2-pyrimidin-2-ylphenyl)carbonyl]hexahydropyrrolo[3,4-c]pyrrol-2(1H)-yl}-6-(trifluoromethyl)pyrimidin-2-amine] yielded a Ki of 57 nM.
Work on CN(C)c1nc(N2CC3CN(C(=O)c4cc(F)ccc4-c4ncccn4)CC3C2)cc(C(F)(F)F)n1 (stereo not drawn) [Example 109, 4-{5-[(5-Fluoro-2-pyrimidin-2-ylphenyl)carbonyl]hexahydropyrrolo[3,4-c]pyrrol-2(1H)-yl}-N,N-dimethyl-6-(trifluoromethyl)pyrimidin-2-amine] yielded a Ki of 46 nM.
Molecule CN(C)c1nc(N2CC3CN(C(=O)c4cc(F)ccc4-n4nccn4)CC3C2)cc(C(F)(F)F)n1 (stereo not drawn) [Example 110, 4-[5-{[5-Fluoro-2-(2H-1,2,3-triazol-2-yl)phenyl]carbonyl}hexahydropyrrolo[3,4-c]pyrrol-2(1H)-yl]-N,N-dimethyl-6-(trifluoromethyl)pyrimidin-2-amine] has a Ki of 52 nM.
CN(C)c1nc(N2CC3CN(C(=O)c4ccc(F)cc4-n4nccn4)CC3C2)cc(C(F)(F)F)n1 (stereo not drawn) [Example 111, [5-(2-Dimethylamino-6-trifluoromethyl-pyrimidin-4-yl)-hexahydro-pyrrolo[3,4-c]pyrrol-2-yl]-(4-fluoro-2-[1,2,3]triazol-2-yl-phenyl)-methanone] showed a Ki of 28 nM.
Work on Cc1ccc(-c2ncccn2)c(C(=O)N2CC3CN(c4cc(C)nc(C(F)(F)F)n4)CC3C2)c1 (stereo not drawn) [Example 112, 2-[(5-Methyl-2-pyrimidin-2-ylphenyl)carbonyl]-5-[6-methyl-2-(trifluoromethyl)pyrimidin-4-yl]octahydropyrrolo[3,4-c]pyrrole] yielded a Ki of 95 nM.
O=C(c1cc(F)ccc1-c1ncccn1)N1CC2CN(c3nccc(-c4ccccc4)n3)CC2C1 (stereo not drawn) [Example 113, 2-[(5-Fluoro-2-pyrimidin-2-ylphenyl)carbonyl]-5-(4-phenylpyrimidin-2-yl)octahydropyrrolo[3,4-c]pyrrole] was tested, and the Ki was 50 nM.
Cc1cc(N2CC3CN(C(=O)c4cc(F)ccc4-n4nccn4)CC3C2)nc(C(F)(F)F)n1 (stereo not drawn) [Example 114, 2-{[5-Fluoro-2-(2H-1,2,3-triazol-2-yl)phenyl]carbonyl}-5-[6-methyl-2-(trifluoromethyl)pyrimidin-4-yl]octahydropyrrolo[3,4-c]pyrrole] was tested, and the Ki was 224 nM.
For Cc1cc(N2CC3CN(C(=O)c4cc(F)ccc4-n4nccn4)CC3C2)nc(C)n1 (stereo not drawn) [Example 115, [5-(2,6-Dimethyl-pyrimidin-4-yl)-hexahydro-pyrrolo[3,4-c]pyrrol-2-yl]-(5-fluoro-2-[1,2,3]triazol-2-yl-phenyl)-methanone], the Ki was 5000 nM.
CN(C)c1nc(N2CC3CN(C(=O)c4c(F)cccc4-c4ncccn4)CC3C2)cc(C(F)(F)F)n1 (stereo not drawn) [Example 116, 4-{5-[(2-Fluoro-6-pyrimidin-2-ylphenyl)carbonyl]hexahydropyrrolo[3,4-c]pyrrol-2(1H)-yl}-N,N-dimethyl-6-(trifluoromethyl)pyrimidin-2-amine] showed a Ki of 22 nM.
